Assay type in all cases: functional
Experiment [1] relates to Shigella flexneri. Nature of the experiment: Antibacterial activity against Shigella flexneri after 24 hr by agar streak dilution method.
Experiment [2] concerns Proteus vulgaris. Kind of experiment: Antibacterial activity against Proteus vulgaris after 24 hr by agar streak dilution method.
For experiment [3], the system named is Salmonella typhi. Kind of experiment: Antibacterial activity against Salmonella enterica subsp. enterica serovar Typhi after 24 hr by agar streak dilution method.
The subject of experiment [4] is Klebsiella pneumoniae. Kind of experiment: Antibacterial activity against Klebsiella pneumoniae after 24 hr by agar streak dilution method.
Experiment [5] concerns Candida albicans. Kind of experiment: Antifungal activity against Candida albicans at 100 ug/disk after 48 hr by paper disk diffusion method. The conditions noted are these: read-out: IZ. (In general: In agar diffusion tests the substance spreads into inoculated agar from a disc or well.)
For experiment [6], the system named is Aspergillus clavatus. Kind of experiment: Antifungal activity against Aspergillus clavatus at 100 ug/disc after 48 hr by paper disk diffusion method. As to conditions: read-out: IZ.
In experiment [7] the test system is Aspergillus fumigatus. Kind of experiment: Antifungal activity against Aspergillus fumigatus at 100 ug/disc after 48 hr by paper disk diffusion method. As to conditions: read-out: IZ.
Experiment [8] concerns Aspergillus niger. Kind of experiment: Antifungal activity against Aspergillus niger at 100 ug/disk after 48 hr by paper disk diffusion method. The conditions noted are these: read-out: IZ.
Experiment [9] concerns Candida albicans. Nature of the experiment: Antifungal activity against Candida albicans after 48 hr by agar streak dilution method.
Experiment [10] relates to Aspergillus clavatus. Nature of the experiment: Antifungal activity against Aspergillus clavatus after 48 hr by agar streak dilution method.
Experiment [11] concerns Aspergillus niger. Nature of the experiment: Antifungal activity against Aspergillus niger after 48 hr by agar streak dilution method.
For experiment [12], the system named is Pseudomonas aeruginosa. Kind of experiment: Antibacterial activity against Pseudomonas aeruginosa after 24 hr by agar streak dilution method.
For experiment [13], the system named is Escherichia coli. Kind of experiment: Antibacterial activity against Escherichia coli after 24 hr by agar streak dilution method.
The subject of experiment [14] is Shigella flexneri. Kind of experiment: Antibacterial activity against Shigella flexneri at 100 ug/disc after 24 hr by paper disk diffusion method. As to conditions: read-out: IZ.
Experiment [15] has as its system Proteus vulgaris. Kind of experiment: Antibacterial activity against Proteus vulgaris at 100 ug/disk after 24 hr by paper disk diffusion method. As to conditions: read-out: IZ.
Experiment [16] has as its system Salmonella typhi. Nature of the experiment: Antibacterial activity against Salmonella enterica subsp. enterica serovar Typhi at 100 ug/disk after 24 hr by paper disk diffusion method. As to conditions: read-out: IZ.
Experiment [17] deals with Klebsiella pneumoniae. Nature of the experiment: Antibacterial activity against Klebsiella pneumoniae at 100 ug/disk after 24 hr by paper disk diffusion method. As to conditions: read-out: IZ.
In experiment [18] the test system is Pseudomonas aeruginosa. Nature of the experiment: Antibacterial activity against Pseudomonas aeruginosa at 100 ug/disk after 24 hr by paper disk diffusion method. The conditions noted are these: read-out: IZ.
The test system of experiment [19] is Escherichia coli. Nature of the experiment: Antibacterial activity against Escherichia coli at 100 ug/disk after 24 hr by paper disk diffusion method. As to conditions: read-out: IZ.
Experiment [20] has as its system Bacillus subtilis. Nature of the experiment: Antibacterial activity against Bacillus subtilis after 24 hr by agar streak dilution method.
For experiment [21], the system named is Staphylococcus aureus. Nature of the experiment: Antibacterial activity against Staphylococcus aureus after 24 hr by agar streak dilution method.
The test system of experiment [22] is Bacillus subtilis. Kind of experiment: Antibacterial activity against Bacillus subtilis at 100 ug/disk after 24 hr by paper disk diffusion method. As to conditions: read-out: IZ.
Experiment [23] deals with Staphylococcus aureus. Kind of experiment: Antibacterial activity against Staphylococcus aureus at 100 ug/disc after 24 hr by paper disk diffusion method. The conditions noted are these: read-out: IZ.
The test system of experiment [24] is Aspergillus fumigatus. Kind of experiment: Antifungal activity against Aspergillus fumigatus after 48 hr by agar streak dilution method.

In brackets after ≈: the same amount, converted by molar mass.

Experimental findings from ChEMBL document CHEMBL3046897, “Synthesis of 3-{4-[4-dimethylamino-6-(4-methyl-2-oxo-2H-chromen-7-yloxy)-[1,3,5]triazin-2-ylamino]-phenyl}-2-phenyl-5-(4-pyridin-2-yl-piperazin-1-ylmethyl)-thiazolidin-4-one and their biological evaluation” (2012) are described below.

As usually defined, the MIC is the lowest concentration that inhibits growth of the organism. Read a low MIC as greater potency.

For `Cc1cc(=O)oc2cc(Oc3nc(Nc4ccc(/N=C/c5ccc(Cl)cc5)cc4)nc(N(C)C)n3)ccc12`, the MIC was 25 µg/mL (≈ 47.4 µM) against Shigella flexneri [1]; 50 µg/mL (≈ 94.9 µM) in the experiment with Proteus vulgaris [2]; 25 µg/mL (≈ 47.4 µM) in the experiment with Salmonella typhi [3]; 100 µg/mL (≈ 190 µM) against Klebsiella pneumoniae [4]; 50 µg/mL (≈ 94.9 µM) against Candida albicans [9]; 50 µg/mL (≈ 94.9 µM) against Aspergillus clavatus [10]. Also, the MIC in the experiment on Aspergillus niger [11] was 100 µg/mL (≈ 190 µM); with Pseudomonas aeruginosa [12], 100 µg/mL (≈ 190 µM); against Escherichia coli [13], 100 µg/mL (≈ 190 µM); in the experiment with Bacillus subtilis [20] it was 100 µg/mL (≈ 190 µM); with Staphylococcus aureus [21] it was 50 µg/mL (≈ 94.9 µM); with Aspergillus fumigatus [24], 50 µg/mL (≈ 94.9 µM). Besides, the zone of inhibition at 100 µg/disc with Candida albicans [5] was determined as 18 mm; in the experiment with Aspergillus clavatus [6], 18 mm; with Aspergillus fumigatus [7], 16 mm; with Aspergillus niger [8] it was 12 mm; in the experiment on Shigella flexneri [14] it was 21 mm; in the experiment with Proteus vulgaris [15] it was 17 mm. For the same compound, the zone of inhibition at 100 µg/disc in the experiment on Salmonella typhi [16] was determined as 19 mm; in the experiment on Klebsiella pneumoniae [17], 15 mm; with Pseudomonas aeruginosa [18] it was 11 mm; in the experiment on Escherichia coli [19], 16 mm; with Bacillus subtilis [22], 14 mm; with Staphylococcus aureus [23] it was 17 mm.
`Cc1cc(=O)oc2cc(Oc3nc(Nc4ccc(/N=C/c5ccc(Cl)cc5Cl)cc4)nc(N(C)C)n3)ccc12`: the minimum inhibitory concentration (MIC) against Shigella flexneri [1] was determined as 100 µg/mL (≈ 178 µM); against Proteus vulgaris [2] it was 50 µg/mL (≈ 89.1 µM); with Salmonella typhi [3] it was 100 µg/mL (≈ 178 µM); with Klebsiella pneumoniae [4] it was 50 µg/mL (≈ 89.1 µM); in the experiment with Candida albicans [9], 100 µg/mL (≈ 178 µM); against Aspergillus clavatus [10], 50 µg/mL (≈ 89.1 µM). Besides, the MIC against Aspergillus niger [11] was found to be 100 µg/mL (≈ 178 µM); in the experiment on Pseudomonas aeruginosa [12], 100 µg/mL (≈ 178 µM); in the experiment with Escherichia coli [13] it was 100 µg/mL (≈ 178 µM); in the experiment on Bacillus subtilis [20] it was 50 µg/mL (≈ 89.1 µM); against Staphylococcus aureus [21], 100 µg/mL (≈ 178 µM); against Aspergillus fumigatus [24] it was 100 µg/mL (≈ 178 µM). The zone of inhibition at 100 µg/disc in the experiment on Candida albicans [5] stood at 12 mm; with Aspergillus clavatus [6], 17 mm; in the experiment on Aspergillus fumigatus [7] it was 13 mm; in the experiment with Aspergillus niger [8], 11 mm; with Shigella flexneri [14], 14 mm; in the experiment on Proteus vulgaris [15] it was 16 mm. In addition, the zone of inhibition at 100 µg/disc is 14 mm in the experiment on Salmonella typhi [16]; 17 mm in the experiment on Klebsiella pneumoniae [17]; 12 mm with Pseudomonas aeruginosa [18]; 13 mm in the experiment with Escherichia coli [19]; 17 mm in the experiment with Bacillus subtilis [22]; 14 mm in the experiment on Staphylococcus aureus [23].
As for `Cc1cc(=O)oc2cc(Oc3nc(Nc4ccc(N5C(=O)CSC5c5ccc(O)cc5)cc4)nc(N(C)C)n3)ccc12` (stereo unspecified), the MIC with Shigella flexneri [1] was 50 µg/mL (≈ 85.8 µM); against Proteus vulgaris [2], 12.5 µg/mL (≈ 21.5 µM); in the experiment with Salmonella typhi [3] it was 12.5 µg/mL (≈ 21.5 µM); with Klebsiella pneumoniae [4] it was 100 µg/mL (≈ 172 µM); against Candida albicans [9], 50 µg/mL (≈ 85.8 µM); against Aspergillus clavatus [10], 50 µg/mL (≈ 85.8 µM). Besides, the MIC stood at 12.5 µg/mL (≈ 21.5 µM) against Aspergillus niger [11]; 25 µg/mL (≈ 42.9 µM) against Pseudomonas aeruginosa [12]; 12.5 µg/mL (≈ 21.5 µM) with Escherichia coli [13]; 12.5 µg/mL (≈ 21.5 µM) in the experiment on Bacillus subtilis [20]; 12.5 µg/mL (≈ 21.5 µM) with Staphylococcus aureus [21]; 12.5 µg/mL (≈ 21.5 µM) against Aspergillus fumigatus [24]. Moreover, the zone of inhibition at 100 µg/disc with Candida albicans [5] came to 19 mm; with Aspergillus clavatus [6], 18 mm; with Aspergillus fumigatus [7], 21 mm; in the experiment with Aspergillus niger [8], 24 mm; with Shigella flexneri [14], 19 mm; in the experiment on Proteus vulgaris [15] it was 21 mm. Besides, the zone of inhibition at 100 µg/disc in the experiment on Salmonella typhi [16] was 23 mm; in the experiment with Klebsiella pneumoniae [17], 15 mm; in the experiment with Pseudomonas aeruginosa [18] it was 21 mm; in the experiment on Escherichia coli [19], 24 mm; in the experiment on Bacillus subtilis [22] it was 20 mm; in the experiment with Staphylococcus aureus [23], 22 mm.
In the case of `Cc1cc(=O)oc2cc(Oc3nc(Nc4ccc(/N=C/c5ccc(F)cc5)cc4)nc(N(C)C)n3)ccc12`, the MIC is 100 µg/mL (≈ 196 µM) in the experiment with Shigella flexneri [1]; 50 µg/mL (≈ 97.9 µM) against Proteus vulgaris [2]; 50 µg/mL (≈ 97.9 µM) in the experiment on Salmonella typhi [3]; 100 µg/mL (≈ 196 µM) in the experiment on Klebsiella pneumoniae [4]; 25 µg/mL (≈ 49 µM) in the experiment with Candida albicans [9]; 50 µg/mL (≈ 97.9 µM) against Aspergillus clavatus [10]. The MIC was found to be 50 µg/mL (≈ 97.9 µM) in the experiment on Aspergillus niger [11]; 50 µg/mL (≈ 97.9 µM) against Pseudomonas aeruginosa [12]; 50 µg/mL (≈ 97.9 µM) in the experiment with Escherichia coli [13]; 50 µg/mL (≈ 97.9 µM) against Bacillus subtilis [20]; 25 µg/mL (≈ 49 µM) against Staphylococcus aureus [21]; 100 µg/mL (≈ 196 µM) in the experiment with Aspergillus fumigatus [24]. Further, the zone of inhibition at 100 µg/disc with Candida albicans [5] was found to be 21 mm; in the experiment on Aspergillus clavatus [6] it was 19 mm; in the experiment on Aspergillus fumigatus [7], 14 mm; with Aspergillus niger [8], 20 mm; in the experiment with Shigella flexneri [14], 14 mm; in the experiment on Proteus vulgaris [15] it was 17 mm. Moreover, the zone of inhibition at 100 µg/disc in the experiment on Salmonella typhi [16] is 15 mm; in the experiment with Klebsiella pneumoniae [17] it was less than 10 mm; with Pseudomonas aeruginosa [18], 20 mm; in the experiment on Escherichia coli [19] it was 16 mm; in the experiment with Bacillus subtilis [22] it was 18 mm; in the experiment on Staphylococcus aureus [23] it was 20 mm.
